Paper PMC7013301 (Evidence-based Complementary and Alternative Medicine : eCAM, 2020)
Read-outs that look alike come from different tables or passages of the source. No end group written: not given here.

Assays:
AChE = conditions: cited from earlier work
human CRF2 receptor = target: T1, human CRF2 receptor (Homo sapiens, UniProt Q13324); assay: Antagonistic activity against CRF2 receptor, CRF-induced cAMP production (HTRF) in HEK-293 cells; format: cell-based
T1 construct: host or cells: HEK-293
T1 sequence (Q13324 1-411): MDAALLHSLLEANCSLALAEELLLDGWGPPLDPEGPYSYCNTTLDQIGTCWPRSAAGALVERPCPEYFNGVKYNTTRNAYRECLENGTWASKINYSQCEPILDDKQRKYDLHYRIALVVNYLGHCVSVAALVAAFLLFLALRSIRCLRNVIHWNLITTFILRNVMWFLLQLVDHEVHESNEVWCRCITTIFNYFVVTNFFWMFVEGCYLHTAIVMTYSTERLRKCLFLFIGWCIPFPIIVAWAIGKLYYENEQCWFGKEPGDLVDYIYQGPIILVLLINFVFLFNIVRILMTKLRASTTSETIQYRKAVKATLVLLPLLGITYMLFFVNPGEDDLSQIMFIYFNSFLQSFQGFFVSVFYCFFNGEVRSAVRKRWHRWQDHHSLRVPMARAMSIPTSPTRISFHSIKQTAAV
Experimental: (§1) Assays were performed at Eurofins Discovery (MO, USA). Briefly, evaluation of the inhibitory activities against human recombinant acetylcholinesterase (AChE) expressed in HEK-293 cells was performed by preincubation with test compound and/or vehicle with 41ng/ml of enzyme for 15 minutes at 25°C in phosphate buffer pH 7.4. After 20 minute incubation with 0.7 mM acetylthiocholine iodide and 0.5 mM 5,5-dithiobis-2-nitrobenzoic acid, the spectrophotometric absorbance was read at 405 nm (Catalog No. 104010). Evaluation of the antagonistic activities against human CRF2 receptor transfected in HEK-293 cells was performed by measuring the effects of the test compounds on cAMP production induced by 100 nM human CRF incubated for 30 minutes at room temperature via the HTRF detection method (Catalog No. 2086). Evaluation of the antagonistic activities against human dopamine D2, D3, and neuropeptide Y (NPY) Y2 receptors expressed in CHO-K1 cells, CHO-K1, and KAN-TS cells, respectively, was performed by preincubation of the test compounds and/or vehicle with the membrane proteins (0.1, 0.04, 0.04 mg/ml, respectively) and GDP (10, 1, 0.001 mM) in 20 mM HEPES, pH 7.4, 100 mM NaCl, 10 mM MgCl2, 1 mM DTT, and 1 mM EDTA for 20 minutes at 25°C, and SPA beads are then added for another 60 minutes at 30°C. The reaction was initiated by 0.3 nM [^35S]GTPγS for an additional incubation period (15, 30, 30 minute). Inhibition on increase of [^35S]GTPS binding response induced by dopamine (10, 0.03 mM) or 3 nM human NPY was assessed as receptor antagonist activities of test compounds (Catalog No. 310200, 310400, 332520). Evaluation of the antagonistic activities of shogaol and gingerol against human […] NPY Y2 receptor expressed in RBL cells was performed by measuring the effects of the test compounds on calcium flux induced by 15 nM human NPY (Catalog No. 4287). A concentration-response curve was generated to calculate IC50 values.

[1] = target: T2, human neuropeptide Y (NPY) Y2 receptor (Homo sapiens, UniProt P49146); assay: Antagonistic activity against NPY Y2 receptor, [35S]GTPγS binding, KAN-TS membranes; format: biochemical
T2 construct: host or cells: KAN-TS (membranes)
T2 sequence (P49146 1-381): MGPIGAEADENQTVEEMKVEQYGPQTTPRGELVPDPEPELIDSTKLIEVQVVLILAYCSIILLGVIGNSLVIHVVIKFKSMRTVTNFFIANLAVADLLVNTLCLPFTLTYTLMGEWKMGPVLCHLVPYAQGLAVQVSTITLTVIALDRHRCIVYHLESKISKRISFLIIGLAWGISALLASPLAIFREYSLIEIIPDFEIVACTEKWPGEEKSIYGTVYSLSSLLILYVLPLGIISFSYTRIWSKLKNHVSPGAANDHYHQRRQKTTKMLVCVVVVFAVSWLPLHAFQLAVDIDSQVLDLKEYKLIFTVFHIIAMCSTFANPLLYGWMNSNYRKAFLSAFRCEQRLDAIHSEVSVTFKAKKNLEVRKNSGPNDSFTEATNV
Experimental: as §1

[2] = target: T3, human dopamine D2 receptor (Homo sapiens, UniProt P14416); assay: Antagonistic activity against dopamine D2 receptor, [35S]GTPγS binding, CHO-K1 membranes; format: biochemical
T3 construct: host or cells: CHO-K1 (membranes)
Experimental: as §1

[3] = cited from earlier work
[4] = target: T4, human dopamine D3 receptor (Homo sapiens, UniProt P35462); assay: Antagonistic activity against dopamine D3 receptor, [35S]GTPγS binding, CHO-K1 membranes; format: biochemical
T4 construct: host or cells: CHO-K1 (membranes)
Experimental: as §1

human NPY Y2 receptor = target: T5, human NPY Y2 receptor (Homo sapiens, UniProt P49146); assay: Antagonistic activity of shogaol and gingerol against NPY Y2 receptor, calcium flux in RBL cells; format: cell-based; conditions: calcium flux induced by 15 nM human NPY
T5 construct: host or cells: RBL
T5 sequence (P49146 1-381): T2 sequence (P49146 1-381)
Experimental: as §1

[5] = target: T6, human recombinant acetylcholinesterase (AChE) (Homo sapiens, UniProt P22303); assay: Inhibition of recombinant acetylcholinesterase, spectrophotometric (acetylthiocholine/DTNB); format: biochemical; conditions: pH 7.4, 25°C
T6 construct: purchased Eurofins Discovery 104010; host or cells: HEK-293
Experimental: as §1

C57BL/6 mice = assay: CRF-induced delayed gastric emptying of solid meal in mice; format: in vivo; conditions: CRF ICV 0.3 and 1.0 μg/mouse, vs vehicle
Experimental: Seven-week-old male C57BL/6 mice (weighing 20–27 g) were purchased from Charles River Laboratories (Tokyo, Japan). Five mice were housed in a plastic cage (230 × 310 × 155 mm) with bedding materials and acclimated for a week in a controlled environment (20–26°C, 30–70% humidity) under a 12-hour light/dark cycle with free access to standard chow and water. This study was approved by and conducted according to the guidelines of the experimental animal ethics committees of Tsumura & Co. (Tokyo, Japan; Permit No. 14-094-1).
BGH was manufactured by Tsumura & Co., complying with the quality standards authorized in the Japanese Pharmacopoeia, which was published under the authority of the Japanese Ministry of Health, Labour and Welfare. […]
Solid gastric emptying was evaluated using a test meal containing 20 g of ground meal and 40.61 mL of distilled water. […] The gastric emptying of solid meal was calculated using the equation below: […]

[6] = cAMP production induced by 100 nM human CRF, HEK-293, read-out: IC50 value CRF2
[7] = inhibition of dopamine-induced [35S]GTPγS binding, read-out: IC50 value D2
[8] = inhibition of dopamine-induced [35S]GTPγS binding, read-out: IC50 value D3
[9] = reported value from previous study (*) ref 23

T3 sequence (P14416 whole entry): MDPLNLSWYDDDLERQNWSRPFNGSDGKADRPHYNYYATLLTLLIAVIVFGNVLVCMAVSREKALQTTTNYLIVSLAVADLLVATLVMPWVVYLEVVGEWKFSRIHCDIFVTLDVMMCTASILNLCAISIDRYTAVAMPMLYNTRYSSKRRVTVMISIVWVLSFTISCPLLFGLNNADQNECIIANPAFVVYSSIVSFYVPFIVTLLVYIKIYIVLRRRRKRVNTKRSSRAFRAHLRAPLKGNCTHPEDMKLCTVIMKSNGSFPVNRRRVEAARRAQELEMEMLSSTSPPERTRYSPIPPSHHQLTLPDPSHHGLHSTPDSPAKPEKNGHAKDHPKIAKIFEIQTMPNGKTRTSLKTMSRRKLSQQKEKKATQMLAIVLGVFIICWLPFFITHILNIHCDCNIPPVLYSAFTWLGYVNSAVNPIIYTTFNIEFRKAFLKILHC
T6 sequence (P22303 32-614): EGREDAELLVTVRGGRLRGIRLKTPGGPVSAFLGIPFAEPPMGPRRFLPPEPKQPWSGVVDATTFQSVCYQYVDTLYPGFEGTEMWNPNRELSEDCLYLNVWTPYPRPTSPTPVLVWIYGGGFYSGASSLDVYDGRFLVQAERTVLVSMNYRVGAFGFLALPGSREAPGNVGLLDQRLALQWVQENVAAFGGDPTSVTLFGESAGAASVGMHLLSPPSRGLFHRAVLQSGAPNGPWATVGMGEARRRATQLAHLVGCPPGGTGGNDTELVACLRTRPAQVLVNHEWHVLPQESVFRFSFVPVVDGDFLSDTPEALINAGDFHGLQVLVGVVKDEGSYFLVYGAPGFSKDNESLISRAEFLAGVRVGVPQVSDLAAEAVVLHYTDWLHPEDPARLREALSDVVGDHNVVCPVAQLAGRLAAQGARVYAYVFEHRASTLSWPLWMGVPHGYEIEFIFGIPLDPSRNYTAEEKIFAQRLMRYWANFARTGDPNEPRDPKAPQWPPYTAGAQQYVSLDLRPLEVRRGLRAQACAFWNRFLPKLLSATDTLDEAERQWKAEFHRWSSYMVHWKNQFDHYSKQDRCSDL
T4 sequence (P35462 whole entry): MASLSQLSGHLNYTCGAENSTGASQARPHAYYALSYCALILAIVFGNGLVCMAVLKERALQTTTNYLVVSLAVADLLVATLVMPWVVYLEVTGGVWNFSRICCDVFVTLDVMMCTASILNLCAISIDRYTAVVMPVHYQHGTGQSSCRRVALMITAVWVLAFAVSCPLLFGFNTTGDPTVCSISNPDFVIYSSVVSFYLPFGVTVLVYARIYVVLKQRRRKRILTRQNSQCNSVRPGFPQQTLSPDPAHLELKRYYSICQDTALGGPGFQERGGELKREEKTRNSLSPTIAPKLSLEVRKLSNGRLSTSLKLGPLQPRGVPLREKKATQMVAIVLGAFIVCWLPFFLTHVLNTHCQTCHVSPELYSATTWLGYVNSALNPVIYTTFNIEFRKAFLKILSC

Molecule: O=c1cc(-c2ccc(O)c(O)c2)oc2cc(O)cc(O)c12 [Luteolin]
- IC50 (AChE; reported value from previous study (**) ref 24): 32.5 µM
- IC50 (human CRF2 receptor; [6]): > 100 µM
- IC50 ([1]; inhibition of [35S]GTPγS binding induced by 3 nM human NPY, KAN-TS cells, read-out: IC50 value NPY Y2): 8.39 µM
- IC50 [2]: 48.9 µM
- Blood-brain barrier passage ([3]; in vivo): capable of crossing blood-brain barrier
- IC50 [4]: > 100 µM

Molecule: CCCCC/C=C/C(=O)CCc1ccc(O)c(OC)c1 [6-Shogaol]
- IC50 (human CRF2 receptor; [6]): > 100 µM
- IC50 [2, 7]: > 100 µM
- IC50 (human NPY Y2 receptor): > 100 µM
- IC50 [5]: > 100 µM
- IC50 [4, 8]: 11.3 µM

Molecule: O=C(/C=C/c1ccc(O)c(O)c1)O[C@H](Cc1ccc(O)c(O)c1)C(=O)O [Rosmarinic acid]
- IC50 (human CRF2 receptor): > 100 µM
- IC50 [1]: > 100 µM
- IC50 [2, 7]: > 100 µM
- Blood-brain barrier permeability [3]: extremely low
- IC50 [5]: > 100 µM
- IC50 [4, 8]: 0.54 µM

Molecule: CRF: Stress hormone corticotropin-releasing factor (4136-s; Peptide Institute), injected ICV to induce delayed gastric emptying (SEEPPISLDLTFHLLREVLEMARAEQLAQQAHSNRKLMEII; ends and bridges not checked; UniProt P06850 154-194, looked up)
- Gastric emptying rate of solid test meal (2 hours) after CRF (C57BL/6 mice): significantly decreased

Molecule: C=CCc1ccc(O)c(-c2cc(CC=C)ccc2O)c1 [Magnolol]
- IC50 (AChE; [9]): 69 µM
- IC50 (human CRF2 receptor): 32 µM
- IC50 [1]: > 100 µM
- IC50 [2]: 43.1 µM
- Blood-brain barrier passage [3]: capable of traversing the blood-brain barrier
- IC50 [4]: 50.1 µM

Molecule: CCCCCCC/C=C/C(=O)CCc1ccc(O)c(OC)c1 [8-Shogaol]
- IC50 (human CRF2 receptor; [6]): > 100 µM
- IC50 [2, 7]: 7.22 µM
- IC50 (human NPY Y2 receptor): > 100 µM
- Detection in the brain ([3]; after oral administration of ginger extract ref 34): not detected in the brain
- IC50 [5]: 18.9 µM
- IC50 [4, 8]: 11.2 µM

Molecule: C=CCc1ccc(O)c(-c2ccc(O)c(CC=C)c2)c1 [Honokiol]
- IC50 (AChE; [9]): 57 µM
- IC50 (human CRF2 receptor): 40 µM
- IC50 [1]: > 100 µM
- IC50 [2, 7]: 36.2 µM
- Blood-brain barrier passage [3]: capable of traversing the blood-brain barrier
- IC50 [4, 8]: 52.7 µM

Molecule: CCCCCCCCC[C@H](O)CC(=O)CCc1ccc(O)c(OC)c1 [10-Gingerol]
- IC50 (human CRF2 receptor; [6]): > 100 µM
- IC50 [2, 7]: > 100 µM
- IC50 (human NPY Y2 receptor): > 100 µM
- IC50 [5]: 25.9 µM
- IC50 [4, 8]: > 100 µM
